This note sets out measurements from patent US20260070924A1, “INDAZOLE MACROCYCLES AND THEIR USE” (BLOSSOMHILL THERAPEUTICS, INC., priority 2022, published 2026).

The structures appear in SMILES notation.

The target of one assay is FLT3 (D835H) (Homo sapiens (Human), UniProt P36888, D835H). As to the kind of experiment: KINOMEscan binding assay (Eurofins DiscoveRx). As for the experimental part: (§1) For most kinases, kinase-tagged T7 phage strains were prepared in an E. coli host derived from the BL21 strain. E. coli were grown to log-phase and infected with T7 phage and incubated with shaking at 32° C. until lysis. The lysates were centrifuged and filtered to remove cell debris. The remaining kinases were produced in HEK-293 cells and subsequently tagged with DNA for qPCR detection. Streptavidin-coated magnetic beads were treated with biotinylated small molecule ligands for 30 minutes at room temperature to generate affinity resins for kinase assays. The liganded beads were blocked with excess biotin and washed with blocking buffer (SeaBlock (Pierce), 1% BSA, 0.05% Tween 20, 1 mM DTT) to remove unbound ligand and to reduce non-specific binding. […] Test compounds were prepared as 111× stocks in 100% DMSO. Kds were determined using an 11-point 3-fold compound dilution series with three DMSO control points. […] The compounds were then diluted directly into the assays such that the final concentration of DMSO was 0.9%. All reactions performed in polypropylene 384-well plate. Each was a final volume of 0.02 ml. […] The kinase concentration in the eluates was measured by qPCR. Binding constants (Kds) were calculated with a standard dose-response curve using a non-linear least square fit with the Levenberg-Marquardt algorithm.

The target of a further assay is FLT3 (D835V) (Homo sapiens (Human), UniProt P36888, D835V). As to the kind of experiment: KINOMEscan binding assay (Eurofins DiscoveRx). On the procedure: as §1
The next assay concerns the target FLT3 (D835Y) (Homo sapiens (Human), UniProt P36888, D835Y). The assay is described as follows: KINOMEscan binding assay (Eurofins DiscoveRx). On the procedure:
as §1

For another assay, the target named is FLT3 (Homo sapiens (Human), UniProt P36888). As to the kind of experiment: KINOMEscan binding assay (Eurofins DiscoveRx). As for the experimental part: as §1
For a further assay, the target named is FLT3 (ITD). As to the kind of experiment: KINOMEscan binding assay (Eurofins DiscoveRx). On the procedure:
as §1

In a further assay the target is FLT3 (ITD, D835V). As to the kind of experiment: KINOMEscan binding assay (Eurofins DiscoveRx). On the procedure: as §1
In the next assay the target is FLT3 (ITD, F691L). The assay is described as follows: KINOMEscan binding assay (Eurofins DiscoveRx). On the procedure: as §1
For the next assay, the target named is FLT3 (K663Q) (Homo sapiens (Human), UniProt P36888, K663Q). The assay is described as follows: KINOMEscan binding assay (Eurofins DiscoveRx). On the procedure:
as §1

Another assay has as its target FLT3 (N841I) (Homo sapiens (Human), UniProt P36888, N841I). The assay is described as follows: KINOMEscan binding assay (Eurofins DiscoveRx). As for the experimental part: as §1
The target in another assay is FLT3 (R834Q) (Homo sapiens (Human), UniProt P36888, R834Q). The assay is described as follows: KINOMEscan binding assay (Eurofins DiscoveRx). On the procedure:
as §1

For the next assay, the target named is FLT3-autoinhibited (Homo sapiens (Human), UniProt P36888). As to the kind of experiment: KINOMEscan binding assay (Eurofins DiscoveRx). On the procedure:
as §1

Assay [1] concerns Phospho-S6 Ribosomal Protein (S235/236). As to the kind of experiment: Inhibition of kinase phosphorylation by Western Blot in MOLM-13. The class given is cell-based. The settings on record: MOLM-13 cells, 4 hour-incubation; read-out: pS6 MOLM-13 IC50. On the procedure:
(§2) Inhibition of kinase phosphorylation assay was performed by Western Blot using MV-4-11 and MOLM13 cell lines. Cells were plated in 24 well plates at 1 million cells per well and then treated with compounds at different concentrations, starting at 100 nM, 1:4 titration with DMSO as control. After 4 hour-incubation, cells were washed once with ice-cold PBS, and lysed in RIPA lysis buffer with protease and phosphatase inhibitors. The cell lysates were then sonicated and spun down, and 40 μg of proteins were separated by sodium dodecyl sulfate electrophoresis on a 4 to 12% Bis-Tris polyacrylamide gel and transferred onto nitrocellulose membranes using Bio-Rad Trans-Blot Turbo Transfer System (Bio-Rad). Blocking was performed using 3% BSA or 5% Non-fat dry milk (Fisher Scientific) in TBST (Tris-buffered saline containing 0.05% of Tween 20) (Bio-Rad Laboratories, Inc.). The membranes were incubated overnight with anti-phospho-FLT3 (Y589/Y591) (CST #60413), anti-phospho-STAT5 (Y694) (CST #4322), anti-Phospho-p44/42 MAPK (Erk1/2) (T202/Y204) (CST #9101), anti-Phospho-S6 Ribosomal Protein (S235/236) (CST #4858) and anti-β-Actin (CST #8457) each diluted 1000 times in 3% BSA in TBST. Membranes were washed with TBST and then incubated at room temperature for 1 hour with HRP-labeled anti-rabbit IgG polyclonal antibody (CST #7074) diluted 1000 times in 3% BSA. After TBST washing, blots were developed with a chemiluminescence system (SuperSignal West Femto Maximum Sensitivity Substrate, Pierce #34095). Luminescence was detected by LI-COR Odyssey M imaging system and luminescence intensity were quantified using Empiria Studio 2.2 software. Data was analyzed using GraphPad Prism 9 (GraphPad Software, San Diego, CA) to obtain IC50 values.

For assay [2], the system named is Phospho-p44/42 MAPK (Erk1/2) (T202/Y204). The assay is described as above. The settings on record: MOLM-13 cells, 4 hour-incubation; read-out: pERK MOLM-13 IC50. Type of assay: cell-based. On the procedure: as §2
The test system of the next assay is phospho-STAT5 (Y694). The description is as above. The class given is cell-based. The settings on record: MOLM-13 cells, 4 hour-incubation; read-out: pSTAT5 MOLM-13 IC50. On the procedure: as §2
The subject of assay [3] is BCLAF1 exon10-12/exon 10-11. As to the kind of experiment: Alternative splicing ratio by qPCR in MOLM-13. The settings on record: DMSO = 1.00. Type of assay: cell-based. As for the experimental part: Alternative splicing ratio of RNA transcripts was measured by qPCR in MV-4-11 and MOLM-13 cell lines. Cells were plated in 24 well plates at 1 million cells per well and then treated with compounds at different concentrations, with DMSO only as control. After 8-hour-incubation, cells were harvested and washed once with ice-cold PBS, and lysed in RNA lysis buffer (Invitrogen). Total RNA was extracted using the RNA Purification Kit (Invitrogen). 2 μg of RNA was used for cDNA synthesis using cDNA synthesis kit (ThermoFisher) and 20 ng of cDNA was used for qPCR using PROFLEX 96-Well PCR System (ThermoFisher).
Primers with the following sequences were used for the measurement: • BCLAF1 exon10-12/exon 10-11 (TaqMan, IDT)
On the technique in general: Quantitative PCR measures a nucleic acid by following its amplification.

For the compound `CCc1nn(C)c2c1/C=C/c1n[nH]c3ccc(cc13)-c1cnn(C)c1OCCN(C)C2=O` [Ex. 6, (17E)-16-ethyl-8,12,14-trimethyl-2,11,12,14-tetrahydro-8H-3,5-ethenotripyrazolo[3,4-f:3′,4′-j:4″,3″-n][1,4]oxazacyclopentadecin-13(10H)-one], the equilibrium dissociation constant (Kd) on FLT3 (D835H) came to 67 nM; at FLT3 (D835V), 0.062 nM; at FLT3 (D835Y), 4.1 nM; at FLT3, 0.18 nM; at FLT3 (ITD) it was 6.3 nM; at FLT3 (ITD, D835V), 0.058 nM. Further, the Kd at FLT3 (ITD, F691L) was found to be 0.23 nM; on FLT3 (K663Q), 16 nM; at FLT3 (N841I), 2.2 nM; on FLT3 (R834Q), 0.89 nM; at FLT3-autoinhibited, 9.1 nM. The 50% inhibitory concentration (IC50) in assay [1] is 2.47 nM; in assay [2], 4.11 nM; in the assay with phospho-STAT5 (Y694), 0.72 nM. Besides, the “Alternative Splicing Ratio BCLAF1 Ex. 10-12/Ex. 10-11” value came out at 1.80 in [3] (MOLM-13, 30 nM); 5.76 in assay [3] (MOLM-13, 100 nM); 6.89 in assay [3] (MOLM-13, 300 nM).

As a reminder, the Kd is the free concentration of one partner at which half of the binding sites on the other are occupied at equilibrium, for simple one-to-one binding. Higher therefore signals lower affinity. What is called IC50 is the concentration that gives 50% inhibition.
